# From ChEMBL document CHEMBL1135726, “Novel antagonists acting at the P2Y(1) purinergic receptor: synthesis and conformational analysis using potentiometric and nuclear magnetic resonance titration techniques” (J Med Chem, 2002)
# Active and inactive are the calls of the source. No cut-off for these calls is given here.
# Assays:
# Homo sapiens = species on record: Homo sapiens; assay: Inhibitory concentration required to inhibit intracellular [Ca2+] rise induced in washed human platelets by 5 uM ADP; type: functional
# P2Y purinoceptor 1 = P2Y purinoceptor 1 (Homo sapiens, UniProt P47900); assay: pA2 value was evaluated against P2Y purinoceptor 1; conditions: read-out: pA2 (converted)
# [1] = biological target: P2X purinoceptor 2 (Rattus norvegicus) (UniProt P49653); assay: KB value was evaluated at the rat P2X purinoceptor 2 (P2X2); IA menas inactive
# [2] = biological target: P2X purinoceptor 1 (Rattus norvegicus) (UniProt P47824); assay: Affinity at P2X purinoceptor 1 (P2X1) and the value is expressed as IC50
# [3] = biological target: P2X purinoceptor 4 (Rattus norvegicus) (UniProt P51577); assay: KB value was evaluated at the rat P2X purinoceptor 4 (P2X4); IA menas inactive
# Sequence of P2X purinoceptor 4 (Rattus norvegicus) (P51577 whole entry, looked up): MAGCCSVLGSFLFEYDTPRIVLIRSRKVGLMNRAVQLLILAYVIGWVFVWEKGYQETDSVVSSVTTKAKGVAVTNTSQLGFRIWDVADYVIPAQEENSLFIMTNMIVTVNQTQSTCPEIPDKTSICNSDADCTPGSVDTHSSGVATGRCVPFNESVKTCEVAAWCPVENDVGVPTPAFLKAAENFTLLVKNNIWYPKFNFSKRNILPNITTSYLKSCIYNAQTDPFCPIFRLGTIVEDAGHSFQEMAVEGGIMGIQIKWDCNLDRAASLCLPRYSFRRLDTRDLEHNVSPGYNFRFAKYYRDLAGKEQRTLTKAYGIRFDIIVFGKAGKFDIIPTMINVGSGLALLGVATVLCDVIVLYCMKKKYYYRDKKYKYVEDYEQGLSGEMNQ
# Sequence of P2Y purinoceptor 1 (P47900 whole entry): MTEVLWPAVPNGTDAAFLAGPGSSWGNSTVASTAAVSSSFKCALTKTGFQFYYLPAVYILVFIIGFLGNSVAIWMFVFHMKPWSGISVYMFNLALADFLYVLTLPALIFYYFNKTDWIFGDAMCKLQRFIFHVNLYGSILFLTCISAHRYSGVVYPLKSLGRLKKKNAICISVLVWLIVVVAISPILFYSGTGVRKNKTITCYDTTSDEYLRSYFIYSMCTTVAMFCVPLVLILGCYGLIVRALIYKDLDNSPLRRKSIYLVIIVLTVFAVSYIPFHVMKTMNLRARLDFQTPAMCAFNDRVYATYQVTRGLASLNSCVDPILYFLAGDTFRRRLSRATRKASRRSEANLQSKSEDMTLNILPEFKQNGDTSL
# Sequence of P2X purinoceptor 2 (Rattus norvegicus) (P49653 whole entry, looked up): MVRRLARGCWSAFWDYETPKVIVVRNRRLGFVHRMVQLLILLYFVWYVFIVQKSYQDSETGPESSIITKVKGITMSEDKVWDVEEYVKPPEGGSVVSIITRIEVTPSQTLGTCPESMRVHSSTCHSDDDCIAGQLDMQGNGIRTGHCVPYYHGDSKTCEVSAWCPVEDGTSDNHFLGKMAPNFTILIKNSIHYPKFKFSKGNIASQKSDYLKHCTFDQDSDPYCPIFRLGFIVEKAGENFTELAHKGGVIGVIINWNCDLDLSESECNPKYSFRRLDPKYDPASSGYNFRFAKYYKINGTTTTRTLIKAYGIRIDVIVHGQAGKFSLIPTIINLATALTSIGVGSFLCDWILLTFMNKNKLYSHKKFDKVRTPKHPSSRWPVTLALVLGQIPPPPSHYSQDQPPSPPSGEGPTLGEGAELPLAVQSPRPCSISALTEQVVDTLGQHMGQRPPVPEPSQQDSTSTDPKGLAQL
# Sequence of P2X purinoceptor 1 (Rattus norvegicus) (P47824 whole entry, looked up): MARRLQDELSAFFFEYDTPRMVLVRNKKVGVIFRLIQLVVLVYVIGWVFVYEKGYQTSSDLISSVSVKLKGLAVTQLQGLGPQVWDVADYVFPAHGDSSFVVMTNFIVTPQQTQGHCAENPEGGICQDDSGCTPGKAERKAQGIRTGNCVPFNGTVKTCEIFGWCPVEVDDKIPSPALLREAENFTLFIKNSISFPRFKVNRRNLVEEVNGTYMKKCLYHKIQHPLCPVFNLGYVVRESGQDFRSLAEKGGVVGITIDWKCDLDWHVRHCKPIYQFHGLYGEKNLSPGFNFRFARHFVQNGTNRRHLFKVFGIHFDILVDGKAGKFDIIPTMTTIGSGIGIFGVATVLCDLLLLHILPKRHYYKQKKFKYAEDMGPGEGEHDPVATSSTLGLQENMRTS
Kb (P2Y purinoceptor 1) [nM],IA [1],IC50 [2] [nM],IA [3],SMILES,Inhibition (Homo sapiens) [µM]
77.6,–,–,–,CNc1nc(C)nc2c1ncn2[C@H]1C[C@H](OP(=O)(O)O)[C@@H](COP(=O)(O)O)O1,100
282,inactive,1150,inactive,CNc1ncnc2c1ncn2[C@H]1C[C@H](OP(=O)(O)O)[C@@H](COP(=O)(O)O)O1,–
